The values below come from patent publication US20220211914A1, “HYALURONIC ACID HYDROGELS WITH PROLONGED ANTIMICROBIAL ACTIVITY” (INSTITUT NATIONAL DE LA SANTE ET DE LA RECHERCHE MEDICALE …, priority 2019, published 2022).

A short description of data set [1]: PAR-loaded hydrogel stability in Tris/NaCl buffer. Type of data set: physicochemical. To be noted: 48 h at room temperature or at 37° C.
The nature of data set [2]: PAR-FITC release from HA hydrogels in MH and DMEM culture media. Particulars: for release in DMEM/FBS relative to MH: 24 h of incubation at 37° C.; for release rate in MH: followed during 72 hours at 37° C. in MH.
Protocol: Using FITC-labeled PARs of 10 units, 30 units and 200, the inventors evaluated their release at 37° C. from HA hydrogels in two different media.
They performed discs imaging after 24 h of incubation at 37° C. in MH (Mueller Hinton broth, bacterial culture medium) and in DMEM (Dulbecco's modified Eagle's medium+10% FBS+antibiotics, cell culture medium).
More specifically, PAR release from the hydrogels was followed during 72 hours in microbiological growth medium (MH) or cell culture medium (DMEM). PAR-FITC loaded hydrogels were placed into these media and incubated at 37° C., and PAR release was observed by confocal microscopy (FIG. 22).
A further data set has as its system S. aureus. In words: Antibacterial activity of PAR-loaded HA films, S. aureus culture, OD at 620 nm after 24 h. Type of data set: cell-based. To be noted: loaded into HA hydrogels at 1 mg/mL; preliminary experiments. The method, then: FIG. 3: Bacterial growth on PAR pre-loaded and post-loaded HA films. Bacterial growth was evaluated after 24 h by optical density (OD) measurement at 620 nm. PARO corresponds to HA film without PAR. HA 2.5%+BDDE 20% films were added with 1 mg/mL PAR after cross-linking (=post-loaded films).
They assessed post-loading of PAR (adding 1 mg/mL solution of PAR onto cross-linked HA films). […] We also followed PAR release after 24 h from post-loaded films.
After 24 h, OD at 620 nm was measured and bacterial viability on the surfaces was assessed using BacLight Redox Sensor CTC Vitality kit (Molecular Probes) as a fluorescent marker.

A short description of data set [3]: PAR-FITC release from HA hydrogel discs in NaCl 1 M (confocal microscopy, spectrofluorimetry). To be noted: for release according to the confocal microscopy images: 72 h at 37° C. in NaCl 1M, discs loaded with 0.5 mg/mL PAR-FITC; for released PAR (from percentage remaining, image processing): 72 h in NaCl 1 M, 100% = fluorescence intensity before release; for PAR concentration contained in the discs: disc volume approximately 30 μL, loaded in 0.5 mg·mL^−1. The method, then:
FIGS. 20-24: Release of PARs in NaCl and in culture media. HA discs were incubated with 0.5 mg·mL^−1 of three different FITC-conjugated PAR for 24 h. The discs were rinsed, then incubated for 72 h in NaCl 1 M, MH or DMEM.
More specifically, total amounts of PAR contained in the hydrogels were estimated by incubation of hydrogels loaded with fluorescently labelled PAR in concentrated NaCl to promote PAR release. […] The percentage of PAR remaining in the hydrogel discs after 72 h of incubation was measured with image processing; 100% corresponds to fluorescence intensity before release. […] Then, amounts of PAR-FITC released were quantified by measuring fluorescence intensity of the supernatant by spectrofluorimetry and referring to a calibration curve.

Data set [4] can be described thus: Loading of PAR-FITC into HA hydrogel discs (CLSM images, fluorescence profiles). Type of data set: physicochemical. Particulars: for distribution in hydrogel discs (fluorescent profiles): discs loaded with 0.5 mg/mL PAR-FITC. Here is the method:
FIG. 6: Loading of PAR30-FITC into HA hydrogel discs at different concentrations for 3 h and 24 h. (A) CLSM images (B) Quantification of PAR concentration in the center of the discs.
FIG. 7: Loading of PARs-FITC into HA hydrogel discs. CSLM images of HA hydrogel discs loaded with 0.5 mg/mL of three PARs labelled with FITC (on the left) and fluorescence profiles of the resulting discs (on the right).
To load PAR into the hydrogels, the discs were immersed in PAR solution and incubated at room temperature. For 4 mm discs in 24-well plate, 0.5 mL of PAR solution was used. Then the discs were rinsed with Tris/NaCl buffer two times: one short and one long (at least 1 hour) rinsing.
To visualize PAR loading and diffusion inside the hydrogels, they again used fluorescently-labelled PARs (PAR10-FITC, PAR30-FITC, PAR200-FITC).

The next data set deals with Balb/3T3 cells. In words: Direct in vitro cytotoxicity test (ISO 10993) with MTT test. To be noted: 24 h. The method, then:
FIG. 14: Cell viability evaluation by MTT test. Balb/3T3 cells were seeded in 24-well plate and put in contact with HA hydrogel discs loaded or not with PARs for 24 h. HA discs correspond to BDDE-crosslinked HA hydrogel discs without PAR, and HA+PARs correspond to HA hydrogels loaded with different PAR concentrations (mg/mL). (A) Cell images after 24 h of direct in vitro cytotoxicity test. (B) Cell viability measured by MTT test. Dashed line corresponds to 70% viability (cytotoxicity limit).
Direct in vitro cytotoxicity test consists in putting material in contact with the cells for 24 h and performing MTT test to evaluate cell viability. According to ISO 10993, the tested material should cover approximately 1/10 of cell layer surface, which corresponds to ˜5 mm hydrogel discs per well of a 24-well plate.
After 24 h at 37° C., hydrogel discs were removed and MTT test was performed in order to measure cell metabolic activity, which often serves to estimate cell viability. […] The number of viable cells correlates to the colour intensity determined by photometric measurements after dissolving the formazan in alcohol (from ISO 10993).
So the discs, loaded or not with PAR, were sterilized and placed onto ˜80% confluent layer of Balb/3T3 cells. For MTT assay, the cells were incubated for 2 h in 0.2 mg/mL MTT-containing cell culture medium. The medium was then removed and formazan was dissolved in DMSO. Absorbance of resulting solutions was measured at 570 nm using spectrophotometer and images were taken around and under the discs to evaluate cell morphology.
On the technique in general: Tetrazolium dyes change colour on reduction, which living cells bring about.

In a further data set the test system is bacteria. Nature of the data set: Repetitive culture of bacteria with PAR-loaded HA hydrogel discs (fresh bacteria every 24 h). Type of data set: cell-based. To be noted: for duration of antibacterial effect in repetitive culture, additional test: additional test (FIG. 15); for lowest loading concentration showing antibacterial effect: loaded HA hydrogels. The method, then: Repetitive culture: after 24 h of bacterial culture, the samples were rinsed and seeded with fresh bacteria.
After 24 h of bacterial culture, the samples were rinsed and seeded with fresh bacteria.
Every 24 h of bacterial culture, the samples were seeded with fresh bacteria.

A short description of data set [5]: PAR mobility inside HA hydrogels by FRAP. It counts as physicochemical. To be noted: discs loaded with 0.5 mg/mL FITC-conjugated PAR for 24 h. The method, then: FIG. 8: PAR mobility inside HA hydrogels. HA discs were loaded with 0.5 mg/mL of three different FITC-conjugated PARs for 24 h and rinsed. Then, FRAP experiments were conducted. (A) Comparison of the fluorescence recovery of three PARs. (B) Determination of the diffusion coefficients D and percentage of mobile molecules p for three PARs.
Next, the inventors studied PARs mobility inside the hydrogels (FIG. 8) using FRAP (fluorescence recovery after photobleaching) technique. […] Quantitative parameters such as diffusion coefficient were also determined (FIG. 8B).

Where [6] appears, read: hydrogels loaded with 0.05 mg/mL.
Where [7] appears, read: 0.1 mg/mL-loaded hydrogels, fresh bacteria added every day.
Setting [8] is: HA hydrogel discs loaded at 1 mg/mL.

Entries after “also recorded” stand apart in the source; their conditions may differ.

In the case of poly-L-arginine [PAR30], the “PAR-FITC release in Tris/NaCl buffer” value in data set [1] is on record as “no PAR-FITC release”. The “release in DMEM/FBS relative to MH” value in data set [2] is recorded as “higher than in MH”. Moreover, the “release rate in MH” value in data set [2] is on record as “released more gradually”. The antibacterial activity result in the data set with S. aureus is on record as “antibacterial activity”. Further, in data set [3], the “release according to the confocal microscopy images” value (from here on “release according”) was around 80%. In addition, the “released PAR (from percentage remaining, image processing)” value in data set [3] was around 78%. In data set [3], the “PAR concentration contained in the discs” value is around 6.7 mg/mL. Further, the “diffusion into the disc center, 24 h vs. 3 h loading” value in data set [4] (PAR30-FITC loading for 3 h vs. 24 h) is recorded as “diffused more into the discs center”. The “distribution in hydrogel discs (fluorescent profiles)” value in data set [4] was “more homogeneous distribution”. For the same substance, the “cell viability by MTT test” value is listed as “good” in the data set on Balb/3T3 cells (0.1 mg/mL-loaded hydrogels) and “good viability” in the data set with Balb/3T3 cells (setting [6]). Also, the “duration of antibacterial effect in repetitive culture, additional test” value in the data set with bacteria (0.1 mg/mL-loaded hydrogels) came to 5 days. Besides, the “duration of antibacterial effect in repetitive culture” value in the data set on bacteria (setting [7]) worked out at 4 days; in the data set with bacteria (HA hydrogel discs loaded at 0.5 mg/mL), 8 days; in the data set with bacteria (setting [8]), 8 days. In the data set on bacteria (PAR10, PAR30, PAR200 loaded HA hydrogels, repetitive culture), the “comparison of prolonged antibacterial effect among PAR lengths” value is listed as “most prolonged antibacterial effect; also recorded: most efficient”. In addition, the “lowest loading concentration showing antibacterial effect” value in the data set with bacteria amounted to 0.05 mg/mL.
With poly-L-arginine [PAR10], the “PAR-FITC release in Tris/NaCl buffer” value in data set [1] is given as “no PAR-FITC release”. The “release rate in MH” value in data set [2] is reported as “faster”. In addition, the “mobility inside the hydrogels (qualitative, FRAP)” value in data set [5] is “most mobile”. Also, in the data set with S. aureus, the antibacterial activity result was “antibacterial activity”. Besides, in data set [3], the “release according” value is “almost complete”; the “released PAR (from percentage remaining, image processing)” value is “about 97%”; the “PAR concentration contained in the discs” value was “about 7.3 mg·mL^−1”. The “distribution in hydrogel discs (fluorescent profiles)” value in data set [4] is recorded as “more homogeneous distribution”. The “cell viability by MTT test” value in the data set on Balb/3T3 cells (0.1 mg/mL-loaded hydrogels) is reported as “good”. Moreover, the “cell viability by MTT test” value in the data set on Balb/3T3 cells (setting [6]) was “good viability”. In addition, the “duration of antibacterial effect in repetitive culture, additional test” value in the data set with bacteria (0.1 mg/mL-loaded hydrogels) came to 3 days. Also, in the data set on bacteria (setting [7]), the “duration of antibacterial effect in repetitive culture” value worked out at 2 days. Also, in the data set with bacteria (setting [8]), the “duration of antibacterial effect in repetitive culture” value is reported as 8 days. In addition, the “lowest loading concentration showing antibacterial effect” value with bacteria is listed as 0.05 mg/mL.
Take poly-L-arginine [PAR200]: the “PAR-FITC release in Tris/NaCl buffer” value in data set [1] is “no PAR-FITC release”. Also, in data set [2], the “release in DMEM/FBS relative to MH” value is recorded as “higher than in MH” and the “release rate in MH” value was “released more gradually”. Also, the “mobility inside the hydrogels (qualitative, FRAP)” value in data set [5] is “least mobile”. In addition, in the data set on S. aureus, the antibacterial activity entry is on record as “antibacterial activity”. Moreover, in data set [3], the “release according” value is around 80%; the “released PAR (from percentage remaining, image processing)” value is recorded as around 78%; the “PAR concentration contained in the discs” value was around 3.9 mg/mL. Besides, in the data set on bacteria (setting [8]), the “duration of antibacterial effect in repetitive culture” value is 7 days.
